These results are taken from PubChem BioAssay (NCI).

Among the test systems are ACHN renal; SW-620 colon; NCI/ADR-RES ovarian; LOX IMVI melanoma; SK-MEL-28 melanoma; SF-539 CNS; SF-268 CNS; NCI-H460 lung; CCRF-CEM leukemia; NCI-H23 lung.
Assay in all cases: NCI-60 cell line screen, 48 h

SMILES strings stand for the structures. Values joined by “and” are separate entries in the source; they are usually repeats but may differ in a detail not shown here. Equal values may be shown once.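 Growth conditions: 96-well plates. Treatment: test compound, 48 hours, 5 concentrations. Analysis: linear interpolation between bracketing concentrations; unreached endpoints set to highest concentration. Here, GI50 denotes the concentration required for 50% inhibition of growth. TGI is the concentration that stops growth completely.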

For the compound `C/C(CCC(=O)O)=N/Nc1ccc([N+](=O)[O-])cc1`, the GI50 in the assay on ACHN renal was 2.19 µM; with SW-620 colon, 2.6 µM; with NCI/ADR-RES ovarian, 4.44 µM; in the assay on LOX IMVI melanoma, 1.84 µM; in the assay on SK-MEL-28 melanoma, greater than 100 µM; with SF-539 CNS, 3.18 µM. Moreover, the GI50 was 29 µM in the assay with SF-268 CNS, 3.12 µM with NCI-H460 lung, 0.696 µM with CCRF-CEM leukemia and greater than 100 µM in the assay on NCI-H23 lung. Further, the TGI was greater than 100 µM with ACHN renal; greater than 100 µM in the assay on SW-620 colon; greater than 100 µM in the assay with NCI/ADR-RES ovarian; greater than 100 µM in the assay on LOX IMVI melanoma; greater than 100 µM in the assay with SK-MEL-28 melanoma; 14.8 µM with SF-539 CNS. In addition, the TGI in the assay on SF-268 CNS, in the assay with NCI-H460 lung, in the assay with CCRF-CEM leukemia and with NCI-H23 lung was greater than 100 µM in each case.
As to `Cn1cc(C2=C(c3c4n(c5ccccc35)CCNC4)C(=O)NC2=O)c2ccccc21`, the GI50 was 7.93 µM with ACHN renal; 6.92 µM in the assay with SW-620 colon; 12.7 µM in the assay on NCI/ADR-RES ovarian; 11.3 µM in the assay with LOX IMVI melanoma; greater than 15.3 µM in the assay on SK-MEL-28 melanoma; 5.72 µM in the assay on SF-539 CNS. The GI50 in the assay on SF-268 CNS is 10.5 µM; with NCI-H460 lung it was 10.6 µM; with CCRF-CEM leukemia, 8.91 µM; in the assay with NCI-H23 lung, 24.5 µM. Further, the TGI is greater than 25 µM in the assay on ACHN renal; greater than 25 µM in the assay on SW-620 colon; greater than 25 µM in the assay with NCI/ADR-RES ovarian; greater than 25 µM in the assay with LOX IMVI melanoma; greater than 25 µM in the assay with SK-MEL-28 melanoma; 14.3 µM with SF-539 CNS. Besides, the TGI in the assay on SF-268 CNS, in the assay on NCI-H460 lung, in the assay with CCRF-CEM leukemia and in the assay on NCI-H23 lung was greater than 25 µM each time.
For `O=C(CCCn1c2c(sc3ccccc32)c(=O)n2nnc(-c3ccccc3)c12)NCCc1cnc[nH]1`, the GI50 is 1.37 µM with ACHN renal; 0.0245 µM in the assay with SW-620 colon; 0.972 µM in the assay with NCI/ADR-RES ovarian; 0.28 µM in the assay on LOX IMVI melanoma; 1.01 µM in the assay on SK-MEL-28 melanoma; less than 0.0144 µM in the assay with SF-539 CNS. Further, the GI50 was 1.8 µM in the assay with SF-268 CNS, 1.7 µM with NCI-H460 lung, 0.0368 µM in the assay with CCRF-CEM leukemia and 2.71 µM in the assay with NCI-H23 lung. Moreover, the TGI in the assay on ACHN renal was 2.94 µM; in the assay with SW-620 colon, 0.362 µM; with NCI/ADR-RES ovarian, greater than 24.4 µM; with LOX IMVI melanoma it was 2.49 µM; with SK-MEL-28 melanoma it was 2.36 µM; in the assay with SF-539 CNS, 0.111 µM. Besides, the TGI in the assay with SF-268 CNS turned out to be 4.35 µM; in the assay with NCI-H460 lung it was 3.11 µM; in the assay on NCI-H23 lung it was 9.6 µM.
Consider `CNS(=O)(=O)OCC1OC(n2cnc3cncnc32)C(O)C1O` (configuration not stated), for which the GI50 in the assay on ACHN renal, in the assay on SW-620 colon, in the assay with NCI/ADR-RES ovarian, with LOX IMVI melanoma, with SK-MEL-28 melanoma and in the assay on SF-539 CNS was greater than 100 µM throughout. The GI50 with SF-268 CNS, in the assay with NCI-H460 lung, with CCRF-CEM leukemia and with NCI-H23 lung was greater than 100 µM each time. Moreover, the TGI in the assay with ACHN renal, with SW-620 colon, with NCI/ADR-RES ovarian, in the assay with LOX IMVI melanoma, with SK-MEL-28 melanoma and with SF-539 CNS was greater than 100 µM throughout. Moreover, the TGI in the assay with SF-268 CNS, in the assay with NCI-H460 lung, in the assay on CCRF-CEM leukemia and in the assay on NCI-H23 lung was greater than 100 µM throughout.
On to `COC(=O)C1=COC2OC3C(C(C)O)C(=O)OC34C=CC1C24` (configuration not stated), for which the TGI was greater than 100 µM with ACHN renal; greater than 100 µM in the assay with SW-620 colon; 69 µM with NCI/ADR-RES ovarian; greater than 100 µM with LOX IMVI melanoma; greater than 100 µM in the assay with SK-MEL-28 melanoma; greater than 100 µM with SF-539 CNS. In addition, the TGI is greater than 100 µM in the assay with SF-268 CNS, greater than 100 µM in the assay on NCI-H460 lung, 55.4 µM in the assay on CCRF-CEM leukemia and greater than 100 µM with NCI-H23 lung.
On to `Cc1ccc(F)c(NC(=O)Nc2ccc(-c3cccc4[nH]nc(N)c34)cc2)c1`, for which the GI50 is 3.14 µM and 2.85 µM with ACHN renal; 2.4 µM and 2.58 µM with SW-620 colon; 3.4 µM and 3.81 µM in the assay on NCI/ADR-RES ovarian; 1.8 µM and 2.03 µM in the assay with LOX IMVI melanoma; 3.94 µM and 3.85 µM in the assay on SK-MEL-28 melanoma; 1.61 µM and 1.52 µM in the assay with SF-539 CNS. Moreover, the GI50 with SF-268 CNS is 2.92 µM and 3.25 µM; in the assay on NCI-H460 lung, 2.42 µM and 2.76 µM; in the assay on CCRF-CEM leukemia it was 2.9 µM and 3.4 µM; with NCI-H23 lung, 2.4 µM and 3.41 µM. The TGI with ACHN renal was 11.4 µM and > 10 µM; in the assay on SW-620 colon it was 6.73 µM and 9.58 µM; in the assay with NCI/ADR-RES ovarian, 18.6 µM and > 10 µM; with LOX IMVI melanoma it was 3.62 µM and 4.97 µM; in the assay on SK-MEL-28 melanoma, 18.7 µM and > 10 µM; in the assay on SF-539 CNS, 6.67 µM and > 10 µM. Moreover, the TGI in the assay with SF-268 CNS is 11.2 µM and > 10 µM; with NCI-H460 lung it was 5.94 µM and 8.32 µM; in the assay with CCRF-CEM leukemia, 9.29 µM and > 10 µM; with NCI-H23 lung, 6.17 µM and > 10 µM.
Take `COC1=CC(c2ccc[nH]2)=N/C1=C\c1[nH]c(C)c(C(=O)CCC(=O)Oc2ccc3c(c2)CCC2C3CC[C@]3(C)[C@@H](O)CC[C@@H]23)c1C` (some centres not stated): the GI50 with ACHN renal is 1.94 µM; in the assay on SW-620 colon, 0.816 µM; with NCI/ADR-RES ovarian it was 4.58 µM; with LOX IMVI melanoma it was 0.797 µM; in the assay with SK-MEL-28 melanoma it was 5.64 µM; with SF-539 CNS, 3.69 µM. For the same compound, the GI50 was 2.91 µM in the assay on SF-268 CNS, 3.07 µM with NCI-H460 lung, 0.304 µM with CCRF-CEM leukemia and 3.56 µM with NCI-H23 lung. In addition, the TGI was 6.7 µM with ACHN renal; 5.14 µM in the assay with SW-620 colon; greater than 100 µM in the assay on NCI/ADR-RES ovarian; 2.57 µM in the assay with LOX IMVI melanoma; greater than 100 µM in the assay on SK-MEL-28 melanoma; 28.8 µM in the assay on SF-539 CNS. Also, the TGI in the assay with SF-268 CNS, in the assay on NCI-H460 lung, in the assay with CCRF-CEM leukemia and in the assay on NCI-H23 lung was greater than 100 µM in each case.
As for `COc1ccc(-c2cc(/C=C3\C(=O)Nc4cc(Cl)ccc43)[nH]n2)cc1`, the GI50 in the assay with ACHN renal was 5.49 µM; in the assay with SW-620 colon, 2.57 µM; with NCI/ADR-RES ovarian it was 2.79 µM; in the assay with LOX IMVI melanoma, 4.36 µM; in the assay with SK-MEL-28 melanoma, 7.45 µM; with SF-539 CNS it was 2.41 µM. Moreover, the GI50 was 5.84 µM in the assay with SF-268 CNS, 3.43 µM in the assay on NCI-H460 lung, 2.24 µM in the assay with CCRF-CEM leukemia and 4.27 µM with NCI-H23 lung. The TGI in the assay on ACHN renal is greater than 100 µM; with SW-620 colon, greater than 100 µM; in the assay on NCI/ADR-RES ovarian it was 17.5 µM; in the assay with LOX IMVI melanoma, greater than 100 µM; in the assay with SK-MEL-28 melanoma, greater than 100 µM; in the assay with SF-539 CNS it was 7.52 µM. The TGI in the assay with SF-268 CNS is greater than 100 µM; in the assay on NCI-H460 lung, 23.1 µM; in the assay with CCRF-CEM leukemia, 28.9 µM; in the assay on NCI-H23 lung it was greater than 100 µM.
As to `CC1=C/C=C/C(=O)O[C@@H]([C@H](C)[C@H](O)[C@@H](C)NC(=O)C(C)C)[C@H](C)/C=C/C(C)=C/[C@H]2C=CCC[C@@]2(C)\C=C\1`, the GI50 is 0.136 µM in the assay with ACHN renal; 0.705 µM and 0.303 µM in the assay on SW-620 colon; 1.43 µM and 0.879 µM in the assay on NCI/ADR-RES ovarian; 0.0479 µM and 0.0688 µM in the assay with LOX IMVI melanoma; 0.469 µM and 0.376 µM in the assay with SK-MEL-28 melanoma; 0.0586 µM and 0.0588 µM with SF-539 CNS. For the same compound, the GI50 in the assay on NCI-H460 lung was 0.526 µM and 0.287 µM; with CCRF-CEM leukemia, 5.17 µM and 2.26 µM; with NCI-H23 lung, 1.75 µM and 1.49 µM. Moreover, the TGI in the assay on ACHN renal is 6.98 µM; in the assay on SW-620 colon, 8.9 µM; in the assay on NCI/ADR-RES ovarian it was 27.6 µM; with LOX IMVI melanoma, 0.307 µM and 0.178 µM; in the assay on SK-MEL-28 melanoma, 8.48 µM; in the assay with SF-539 CNS it was 5.3 µM. The TGI with SF-268 CNS amounted to 17.7 µM; in the assay on NCI-H460 lung, 26.4 µM; with CCRF-CEM leukemia, 17.6 µM; in the assay on NCI-H23 lung, 15.2 µM.
Turning to `COc1cc(OC)cc(Oc2cnc3cc(N)cc(N)c3n2)c1`, the GI50 was 15.8 µM in the assay with ACHN renal; 18.6 µM in the assay on SW-620 colon; 16.1 µM in the assay with NCI/ADR-RES ovarian; 11.5 µM in the assay with LOX IMVI melanoma; 14.2 µM with SK-MEL-28 melanoma; 21.3 µM with SF-539 CNS. Besides, the GI50 in the assay on SF-268 CNS is 15.5 µM; in the assay with NCI-H460 lung, 19.4 µM; with CCRF-CEM leukemia, 28.5 µM; in the assay with NCI-H23 lung it was 14.6 µM. Further, the TGI in the assay on ACHN renal came out at 33.3 µM; in the assay on SW-620 colon it was 43.7 µM; in the assay with NCI/ADR-RES ovarian, 43.5 µM; in the assay on LOX IMVI melanoma, 24 µM; in the assay with SK-MEL-28 melanoma, 28.4 µM; in the assay with SF-539 CNS it was 43.7 µM. For the same compound, the TGI with SF-268 CNS was 31.9 µM; in the assay with NCI-H460 lung, 41.2 µM; with CCRF-CEM leukemia it was greater than 100 µM; in the assay with NCI-H23 lung, 28.8 µM.
For the compound `O=C1Nc2ccccc2/C1=C\c1c(-c2ccccc2)nc2sccn12`, the GI50 in the assay with ACHN renal is 2.13 µM; with SW-620 colon it was 2.16 µM; with NCI/ADR-RES ovarian, 1.17 µM; with LOX IMVI melanoma it was 2.09 µM; in the assay with SK-MEL-28 melanoma, 8.98 µM; in the assay on SF-268 CNS, 5.86 µM. The GI50 in the assay with NCI-H460 lung was 3.15 µM; with CCRF-CEM leukemia it was 0.689 µM; in the assay on NCI-H23 lung, 1.63 µM. In addition, the TGI in the assay on ACHN renal is 14.5 µM; in the assay on SW-620 colon it was 27.1 µM; in the assay on NCI/ADR-RES ovarian it was 5.13 µM; in the assay on LOX IMVI melanoma, 13.8 µM; with SK-MEL-28 melanoma it was 44.9 µM; with SF-539 CNS, greater than 34.4 µM. In addition, the TGI is 57.1 µM in the assay with SF-268 CNS, 43.9 µM with NCI-H460 lung, 19.8 µM in the assay on CCRF-CEM leukemia and 4.18 µM in the assay on NCI-H23 lung.
